Results on 21 compounds are retold here after US20250154144A1 (CHILDREN'S HOSPITAL MEDICAL CENTER, priority 2021, published 2025).

The subject of one assay is MOLM14 D835Y cells. Briefly: cells. In kind it is cell-based. To be noted: 48 hours, Cell Titer Glo, read-out: MOLM14 D835Y IC50. A general note: ATP-based viability assays read luminescence as a measure of living cells.
A further assay has as its system MOLM14 F691L cells. The assay can be described thus: cells. It counts as cell-based. The following applies: 48 hours, Cell Titer Glo, read-out: MOLM14 F691L IC50.
The target of a further assay is T1, FLT3 (Homo sapiens, UniProt P36888).
T1 sequence (P36888 610-943 limits assumed): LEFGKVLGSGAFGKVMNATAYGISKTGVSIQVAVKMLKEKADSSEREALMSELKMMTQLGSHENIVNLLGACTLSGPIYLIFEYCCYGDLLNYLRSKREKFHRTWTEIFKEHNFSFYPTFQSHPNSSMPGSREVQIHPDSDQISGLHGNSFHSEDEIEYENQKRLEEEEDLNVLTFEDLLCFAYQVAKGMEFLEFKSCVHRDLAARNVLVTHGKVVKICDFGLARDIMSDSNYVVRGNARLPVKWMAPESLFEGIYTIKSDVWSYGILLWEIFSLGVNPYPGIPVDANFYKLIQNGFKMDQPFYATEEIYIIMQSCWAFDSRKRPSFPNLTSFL
The assay can be described thus: RBC HotSpot Kinase Assay, FLT3.

The target of a further assay is IRAK1 (Homo sapiens, UniProt P51617). Briefly: RBC HotSpot Kinase Assay, IRAK1. The following applies: IRAK1 IC50.
IRAK1, sequence (P51617 whole entry): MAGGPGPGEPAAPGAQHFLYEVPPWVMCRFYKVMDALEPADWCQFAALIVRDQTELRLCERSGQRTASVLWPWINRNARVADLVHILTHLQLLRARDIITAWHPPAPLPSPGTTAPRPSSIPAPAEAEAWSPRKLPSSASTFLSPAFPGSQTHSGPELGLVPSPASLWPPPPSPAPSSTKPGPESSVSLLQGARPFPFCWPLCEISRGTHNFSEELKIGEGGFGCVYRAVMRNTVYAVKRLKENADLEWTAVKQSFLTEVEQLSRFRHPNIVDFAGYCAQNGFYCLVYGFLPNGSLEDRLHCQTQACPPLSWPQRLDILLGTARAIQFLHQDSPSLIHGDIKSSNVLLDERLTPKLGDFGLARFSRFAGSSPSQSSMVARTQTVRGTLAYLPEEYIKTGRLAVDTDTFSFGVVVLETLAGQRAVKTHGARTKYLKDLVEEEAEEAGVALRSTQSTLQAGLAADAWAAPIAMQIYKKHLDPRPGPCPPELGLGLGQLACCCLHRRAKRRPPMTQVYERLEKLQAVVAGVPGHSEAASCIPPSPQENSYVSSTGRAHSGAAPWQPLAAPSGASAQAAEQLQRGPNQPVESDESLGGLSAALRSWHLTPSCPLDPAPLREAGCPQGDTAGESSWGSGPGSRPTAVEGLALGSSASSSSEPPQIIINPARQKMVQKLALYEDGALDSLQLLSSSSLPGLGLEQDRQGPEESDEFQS
A further assay concerns the target T2, IRAK4 (Homo sapiens, UniProt Q9NWZ3).
T2 sequence (Q9NWZ3 1-460): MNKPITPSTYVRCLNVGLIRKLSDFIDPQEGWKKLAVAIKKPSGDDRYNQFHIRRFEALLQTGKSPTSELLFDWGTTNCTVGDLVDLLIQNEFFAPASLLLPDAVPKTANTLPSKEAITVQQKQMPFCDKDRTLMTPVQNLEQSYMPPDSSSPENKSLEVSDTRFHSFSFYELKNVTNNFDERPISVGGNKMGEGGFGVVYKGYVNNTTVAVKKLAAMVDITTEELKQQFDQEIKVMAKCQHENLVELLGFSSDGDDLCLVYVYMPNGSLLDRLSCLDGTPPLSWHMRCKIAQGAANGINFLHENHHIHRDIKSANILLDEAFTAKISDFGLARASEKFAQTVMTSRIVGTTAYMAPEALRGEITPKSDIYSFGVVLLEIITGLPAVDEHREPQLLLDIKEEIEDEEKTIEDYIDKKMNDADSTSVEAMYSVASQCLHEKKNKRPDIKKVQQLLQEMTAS
The assay can be described thus: RBC HotSpot Kinase Assay, IRAK4. The following applies: IRAK4 IC50.

Like-named read-outs stand apart in the source and are kept apart here. A value given as a limit tells only on which side of the number the result lay.

In general, IC50 refers to the midpoint of a concentration-inhibition curve. Regarding `COc1ccn2c(-c3ccnc(N[C@@H]4CCCNC4)n3)cnc2c1` [Compound 29, (R)-4-(7-methoxyimidazo[1,2-a]pyridin-3-yl)-N-(piperidin-3-yl)pyrimidin-2-amine], the IC50 in the assay on MOLM14 D835Y cells (Homo sapiens, MOLM-14, 48 h) is 0.012 µM; in the assay on MOLM14 F691L cells (Homo sapiens, MOLM-14, 48 h), 0.109 µM; at FLT3 (FLT3 IC50), less than 0.0005 µM; at IRAK1 it was 0.013 µM; against IRAK4, less than 0.0005 µM.

Turning to `CC(O)(c1cn2c(-c3cncc(N[C@@H]4CCCNC4)n3)cnc2cn1)C(F)(F)F` (single isomer, unassigned) [Compound 73], the IC50 with MOLM14 D835Y cells was found to be 0.612 µM; in the assay on MOLM14 F691L cells, 0.969 µM; against FLT3 (FLT3 IC50) it was 0.008 µM; against IRAK1, 0.091 µM; on IRAK4, 0.037 µM.

On to `CC(O)(c1cn2c(-c3cncc(N[C@H]4CNC[C@@H]4F)n3)cnc2cn1)C(F)(F)F` (single isomer, unassigned) [Compound 77], for which the IC50 came to 0.686 µM in the assay with MOLM14 D835Y cells; 1.93 µM in the assay on MOLM14 F691L cells; 0.007 µM against FLT3 (FLT3 IC50); 0.089 µM against IRAK1; 0.004 µM at IRAK4.

On to `CC(C)Oc1ccn2c(-c3nccc(N[C@H]4CNC[C@@H]4F)n3)cnc2c1` [Compound 52, N-((3S,4S)-4-fluoropyrrolidin-3-yl)-2-(7-isopropoxyimidazo[1,2-a]pyridin-3-yl)pyrimidin-4-amine], for which the IC50 in the assay with MOLM14 D835Y cells (Homo sapiens, MOLM-14, 48 h) turned out to be 0.473 µM; with MOLM14 F691L cells (Homo sapiens, MOLM-14, 48 h), 7.5 µM; against FLT3 (FLT3 IC50) it was 0.005 µM; against IRAK1, 0.961 µM; against IRAK4, 0.042 µM.

Take `c1cn2c(-c3cncc(N[C@@H]4CCCNC4)n3)cnc2cc1OC1CC1` [Compound 11, (R)-6-(7-cyclopropoxyimidazo[1,2-a]pyridin-3-yl)-N-(piperidin-3-yl)pyrazin-2-amine]: the IC50 in the assay on MOLM14 D835Y cells (Homo sapiens, MOLM-14, 48 h) was 0.043 µM; in the assay on MOLM14 F691L cells (Homo sapiens, MOLM-14, 48 h) it was 0.109 µM; against FLT3 (FLT3 IC50), less than 0.0005 µM; against IRAK1, 0.085 µM; on IRAK4 it was 0.005 µM.

With `CC(O)(c1cn2c(-c3ccnc(N[C@@H]4CCCNC4)n3)cnc2cn1)C(F)(F)F` (single isomer, unassigned) [Compound 67], the IC50 in the assay with MOLM14 D835Y cells (Homo sapiens, MOLM-14, 48 h) is 0.137 µM; with MOLM14 F691L cells (Homo sapiens, MOLM-14, 48 h) it was 0.77 µM; at FLT3 (FLT3 IC50), less than 0.0005 µM; against IRAK1 it was 0.031 µM; against IRAK4 it was 0.022 µM.

Consider `O=C1CCCN1c1cn2c(-c3ccnc(N[C@@H]4CCCNC4)n3)cnc2cn1` [Compound 47, (R)-1-(3-(2-(piperidin-3-ylamino)pyrimidin-4-yl)imidazo[1,2-a]pyrazin-6-yl)pyrrolidin-2-one], for which the IC50 is 0.039 µM in the assay on MOLM14 D835Y cells (Homo sapiens, MOLM-14, 48 h); 0.344 µM in the assay on MOLM14 F691L cells (Homo sapiens, MOLM-14, 48 h); less than 0.0005 µM at FLT3 (FLT3 IC50); 0.068 µM at IRAK1; 0.012 µM against IRAK4.

On to `O=C1CCCN1c1cn2c(-c3ccnc(N[C@H]4CNCC[C@@H]4F)n3)cnc2cn1` [Compound 48, 1-(3-(2-(((3S,4S)-4-fluoropiperidin-3-yl)amino)pyrimidin-4-yl)imidazo[1,2-a]pyrazin-6-yl)pyrrolidin-2-one], for which the IC50 with MOLM14 D835Y cells (Homo sapiens, MOLM-14, 48 h) was 0.043 µM; in the assay with MOLM14 F691L cells (Homo sapiens, MOLM-14, 48 h), 0.273 µM; against FLT3 (FLT3 IC50), less than 0.0005 µM; on IRAK1, 0.097 µM; on IRAK4, 0.018 µM.

As to `COc1cc2ncc(-c3cncc(N[C@H]4CNC[C@@H]4F)n3)n2cc1C(C)(C)O` [Compound 19, 2-(3-(6-(((3S,4S)-4-fluoropyrrolidin-3-yl)amino)pyrazin-2-yl)-7-methoxyimidazo[1,2-a]pyridin-6-yl)propan-2-ol], the IC50 in the assay with MOLM14 D835Y cells (Homo sapiens, MOLM-14, 48 h) is 0.109 µM; in the assay with MOLM14 F691L cells (Homo sapiens, MOLM-14, 48 h), 0.193 µM; against FLT3 (FLT3 IC50) it was less than 0.0005 µM; at IRAK1, 0.003 µM; against IRAK4 it was 0.0008 µM.

Take `FC(F)COc1ccn2c(-c3cncc(N[C@H]4CNC[C@@H]4F)n3)cnc2c1` [Compound 7]: the IC50 was 0.069 µM in the assay with MOLM14 D835Y cells (Homo sapiens, MOLM-14, 48 h); 0.217 µM with MOLM14 F691L cells (Homo sapiens, MOLM-14, 48 h); less than 0.0005 µM on FLT3 (FLT3 IC50); 0.085 µM against IRAK1; 0.004 µM against IRAK4.

For `FC(F)COc1ccn2c(-c3ccnc(N[C@@H]4CCCNC4)n3)cnc2c1` [Compound 32, (R)-4-(7-(2,2-difluoroethoxy)imidazo[1,2-a]pyridin-3-yl)-N-(piperidin-3-yl)pyrimidin-2-amine], the IC50 is 0.007 µM in the assay on MOLM14 D835Y cells (Homo sapiens, MOLM-14, 48 h); 0.077 µM with MOLM14 F691L cells (Homo sapiens, MOLM-14, 48 h); less than 0.0005 µM against FLT3 (FLT3 IC50); 0.045 µM at IRAK1; 0.002 µM against IRAK4.

Take `CC(C)Oc1ccn2c(-c3nccc(N[C@@H]4CCCNC4)n3)cnc2c1` [Compound 53, (R)-2-(7-isopropoxyimidazo[1,2-a]pyridin-3-yl)-N-(piperidin-3-yl)pyrimidin-4-amine]: the 50% inhibitory concentration (IC50) in the assay with MOLM14 D835Y cells (Homo sapiens, MOLM-14, 48 h) stood at 0.205 µM; in the assay on MOLM14 F691L cells (Homo sapiens, MOLM-14, 48 h) it was 2.17 µM; on FLT3 (FLT3 IC50) it was 0.002 µM; against IRAK1, 1.94 µM; at IRAK4 it was 0.06 µM.

Consider `FC(F)Oc1ccn2c(-c3ccnc(N[C@H]4CNCC[C@@H]4F)n3)cnc2c1` [Compound 36, 4-(7-(difluoromethoxy)imidazo[1,2-a]pyridin-3-yl)-N-((3S,4S)-4-fluoropiperidin-3-yl)pyrimidin-2-amine], for which the IC50 was 0.043 µM with MOLM14 D835Y cells (Homo sapiens, MOLM-14, 48 h); 0.307 µM in the assay on MOLM14 F691L cells (Homo sapiens, MOLM-14, 48 h); less than 0.0005 µM against FLT3 (FLT3 IC50); 0.017 µM on IRAK1; 0.003 µM against IRAK4.

In the case of `CC(O)(c1cn2c(-c3cncc(N[C@H]4CNC[C@@H]4F)n3)cnc2cn1)C(F)(F)F` (single isomer, unassigned) [Compound 75], the IC50 came out at 1.09 µM in the assay on MOLM14 D835Y cells (Homo sapiens, MOLM-14, 48 h); 1.72 µM with MOLM14 F691L cells (Homo sapiens, MOLM-14, 48 h); 0.009 µM at FLT3 (FLT3 IC50); 0.262 µM against IRAK1; 0.04 µM against IRAK4.

As to `FC(F)COc1ccn2c(-c3ccnc(N[C@H]4CNC[C@@H]4F)n3)cnc2c1` [Compound 31, 4-(7-(2,2-difluoroethoxy)imidazo[1,2-a]pyridin-3-yl)-N-((3S,4S)-4-fluoropyrrolidin-3-yl)pyrimidin-2-amine], the IC50 with MOLM14 D835Y cells (Homo sapiens, MOLM-14, 48 h) was 0.015 µM; with MOLM14 F691L cells (Homo sapiens, MOLM-14, 48 h), 0.344 µM; at FLT3 (FLT3 IC50) it was less than 0.0005 µM; against IRAK1 it was 0.009 µM; at IRAK4, 0.0007 µM.

Consider `FC(F)Oc1ccn2c(-c3ccnc(N[C@@H]4CCCNC4)n3)cnc2c1` [Compound 35, (R)-4-(7-(difluoromethoxy)imidazo[1,2-a]pyridin-3-yl)-N-(piperidin-3-yl)pyrimidin-2-amine], for which the half-maximal inhibitory concentration (IC50) was 0.039 µM with MOLM14 D835Y cells (Homo sapiens, MOLM-14, 48 h); 0.433 µM in the assay with MOLM14 F691L cells (Homo sapiens, MOLM-14, 48 h); less than 0.0005 µM on FLT3 (FLT3 IC50); 0.12 µM against IRAK1; 0.027 µM against IRAK4.

With `CC(O)(c1cn2c(-c3cncc(N[C@@H]4CCCNC4)n3)cnc2cn1)C(F)(F)F` (single isomer, unassigned) [Compound 74], the 50% inhibitory concentration (IC50) in the assay with MOLM14 D835Y cells came to 0.217 µM; with MOLM14 F691L cells, 0.344 µM; on FLT3 (FLT3 IC50), 0.003 µM; against IRAK1, 0.029 µM; on IRAK4 it was 0.004 µM.

As to `c1cc(-c2cnc3cc(OC4CC4)ccn23)nc(N[C@@H]2CCCNC2)n1` [Compound 38, (R)-4-(7-cyclopropoxyimidazo [1,2-a]pyridin-3-yl)-N-(piperidin-3-yl)pyrimidin-2-amine], the half-inhibitory concentration (IC50) is 0.022 µM in the assay on MOLM14 D835Y cells (Homo sapiens, MOLM-14, 48 h); 0.193 µM in the assay on MOLM14 F691L cells (Homo sapiens, MOLM-14, 48 h); less than 0.0005 µM at FLT3 (FLT3 IC50); 0.06 µM at IRAK1; 0.006 µM at IRAK4.

As for `COc1ccn2c(-c3cncc(N[C@H]4CNC[C@@H]4F)n3)cnc2c1` [Compound 4, N-((3S,4S)-4-fluoropyrrolidin-3-yl)-6-(7-methoxyimidazo[1,2-a]pyridin-3-yl)pyrazin-2-amine], the IC50 was 0.077 µM in the assay on MOLM14 D835Y cells (Homo sapiens, MOLM-14, 48 h); 0.244 µM in the assay on MOLM14 F691L cells (Homo sapiens, MOLM-14, 48 h); less than 0.0005 µM on FLT3 (FLT3 IC50); 0.029 µM against IRAK1; 0.002 µM against IRAK4.

For `CC(O)(c1cn2c(-c3ccnc(N[C@H]4CNC[C@@H]4F)n3)cnc2cn1)C(F)(F)F` (single isomer, unassigned) [Compound 71], the 50% inhibitory concentration (IC50) with MOLM14 D835Y cells is 0.069 µM; with MOLM14 F691L cells, 0.686 µM; on FLT3 (read-out: FLT3 IC50), less than 0.0005 µM; at IRAK1 it was 0.005 µM; against IRAK4, less than 0.0005 µM.

`F[C@H]1CNC[C@@H]1Nc1cncc(-c2cnc3cc(OC4CC4)ccn23)n1` [Compound 10, 6-(7-cyclopropoxyimidazo[1,2-a]pyridin-3-yl)-N-((3S,4S)-4-fluoropyrrolidin-3-yl)pyrazin-2-amine]: the IC50 with MOLM14 D835Y cells (Homo sapiens, MOLM-14, 48 h) was 0.244 µM; in the assay on MOLM14 F691L cells (Homo sapiens, MOLM-14, 48 h), 0.77 µM; on FLT3 (FLT3 IC50) it was less than 0.0005 µM; against IRAK1, 0.024 µM; against IRAK4, 0.009 µM.
